Experimental data reported in patent publication US20220249364A1, “Designed Inhibitors of Tight Junction Formation” (University of Rochester, priority 2019, published 2022).
No end group written: not given here.

Experiments:
16HBE cells [1] = assay: TER measurement of tight junction disruption in 16HBE cells; format: cell-based, human; conditions: 12 and 96 μM, over 24 hours
Protocol: PHFK were isolated from discarded foreskin tissue. Isolation and propagation procedures for both PHFK and 16HBE cells were done as previously described (Poumay, Roland, Leclercq-Smekens, & Leloup, 1994; Saatian et al., 2013).
10 mgs of synthesized TJDP (RS SYNTHESIS) was dissolved in 100 μl of DMSO (SIGMA). Dissolved peptide was then diluted in pre-warmed (55 ° C.) DMSO/PLURONIC F127® (SPECTRUM) solution formulated in PBS (0.6% / 0.12%, respectively). This solution was heated at 55° C. for 30 minutes then homogenized into detergent using a water bath sonicator (BRANSON 2200) for 10 minutes and vortexed for 1 minute. Peptide was stored at 4° C. until use.
TER and paracellular flux were done as previously published (De Benedetto, Rafaels, et al., 2011). […] 2 μM of fluorescently-labeled antibody (palivizumab) was added to cells after 24 hours of exposure to TJDP and paracellular flux was measured 30 minutes and 18 hours later.
Initial experiments employed the human bronchial epithelial cell line, 16HBE since this cell line is known for its robust TJ formation (Saatian et al., 2013). […] The honeycomb fluorescence pattern of these proteins on the cell surface is a hallmark of a barrier competent TJ (Furuse, Fujita, Hiiragi, Fujimoto, & Tsukita, 1998; Furuse et al., 1993). […] The antibody diffusion was measured at 30 min to reduce the likelihood that active transcellular transport was measured.

[2] = system: primary human foreskin keratinocytes (PHFK); assay: WST-1 cell viability assay in PHFK; format: cell-based
Protocol: (§1) For cytotoxicity measurements, cells were plated at a density of 75,000 cells/well in a 96-well plate and grown to confluence (2 days). Cells were then exposed to vehicle or TJDP and viability was measured at 24, 48 and 96 hours. WST-1 reagent (ROCHE) was diluted 20-fold into each well, and cells were incubated at 37° C. Duplicate readings were taken at 0.5 and 1 hour after addition using a THERMO MULTISKAN EX plate reader (A450—background A620). Media only wells were subtracted and values were normalized to media treated controls.

16HBE cells [3] = assay: WST-1 cell viability assay in 16HBE cells; format: cell-based, human; conditions: 50 μM, highest concentration tested
Protocol: as §1

Substance | effect on TER values (control peptide) (16HBE cells [1]) | toxicity (WST-1) ([2]; 30 μM, p<0.05) | cell death (WST-1) ([2]; lower concentrations with robust inhibition of TJ formation) | viability (WST-1) (16HBE cells [3])
(FKFE)2 | did not affect TER values | – | – | –
SILTGVSTLDQSLKQLSNFSQAVSTQSSR [Peptide 2] | – | Modest toxicity | no appreciable cell death | no loss of viability
SSVSQSTGQIQSKVFDSLLNLSSTLQATR [Peptide 1] | – | – | – | no loss of viability
